# Laboratory results: US20080031982A1 (Metaproteomics, LLC, priority 2006, published 2008)
# Columns and labels:
# Experiment in all cases: KinaseProfiler Assay
# AMPK = test system: AMPK
# CDK5/p25 = CDK5/p25 (Homo sapiens, UniProt Q00535)
# CK1(y) = test system: CK1(y)
# CK1δ = CK1δ (Homo sapiens, UniProt P48730)
# IGF-1R = IGF-1R (Homo sapiens, UniProt P08069)
# IKKβ = biological target: T1, IKKβ (Homo sapiens, UniProt O14920)
# T1 sequence (O14920 1-756): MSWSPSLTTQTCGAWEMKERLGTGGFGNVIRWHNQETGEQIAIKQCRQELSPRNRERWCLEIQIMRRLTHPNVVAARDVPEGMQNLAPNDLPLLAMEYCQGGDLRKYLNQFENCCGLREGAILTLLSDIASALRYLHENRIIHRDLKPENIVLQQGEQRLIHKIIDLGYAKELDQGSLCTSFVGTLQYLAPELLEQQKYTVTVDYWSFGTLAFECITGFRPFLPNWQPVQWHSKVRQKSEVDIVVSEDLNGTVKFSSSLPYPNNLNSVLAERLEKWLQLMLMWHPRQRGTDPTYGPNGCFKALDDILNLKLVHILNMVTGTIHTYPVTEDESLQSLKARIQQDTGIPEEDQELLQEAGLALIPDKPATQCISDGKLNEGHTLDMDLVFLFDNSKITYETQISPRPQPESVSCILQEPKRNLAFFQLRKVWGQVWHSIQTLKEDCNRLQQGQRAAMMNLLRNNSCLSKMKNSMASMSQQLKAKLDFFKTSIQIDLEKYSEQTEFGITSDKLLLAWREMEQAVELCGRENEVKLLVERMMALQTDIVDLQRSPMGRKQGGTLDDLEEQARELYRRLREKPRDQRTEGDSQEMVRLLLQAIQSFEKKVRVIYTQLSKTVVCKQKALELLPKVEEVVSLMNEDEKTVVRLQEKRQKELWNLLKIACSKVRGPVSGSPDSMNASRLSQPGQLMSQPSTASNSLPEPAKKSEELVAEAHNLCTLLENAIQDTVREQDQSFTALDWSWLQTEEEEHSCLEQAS
# IRAK1 = IRAK1 (Homo sapiens, UniProt P51617)
# Sequence of IRAK1 (P51617 whole entry): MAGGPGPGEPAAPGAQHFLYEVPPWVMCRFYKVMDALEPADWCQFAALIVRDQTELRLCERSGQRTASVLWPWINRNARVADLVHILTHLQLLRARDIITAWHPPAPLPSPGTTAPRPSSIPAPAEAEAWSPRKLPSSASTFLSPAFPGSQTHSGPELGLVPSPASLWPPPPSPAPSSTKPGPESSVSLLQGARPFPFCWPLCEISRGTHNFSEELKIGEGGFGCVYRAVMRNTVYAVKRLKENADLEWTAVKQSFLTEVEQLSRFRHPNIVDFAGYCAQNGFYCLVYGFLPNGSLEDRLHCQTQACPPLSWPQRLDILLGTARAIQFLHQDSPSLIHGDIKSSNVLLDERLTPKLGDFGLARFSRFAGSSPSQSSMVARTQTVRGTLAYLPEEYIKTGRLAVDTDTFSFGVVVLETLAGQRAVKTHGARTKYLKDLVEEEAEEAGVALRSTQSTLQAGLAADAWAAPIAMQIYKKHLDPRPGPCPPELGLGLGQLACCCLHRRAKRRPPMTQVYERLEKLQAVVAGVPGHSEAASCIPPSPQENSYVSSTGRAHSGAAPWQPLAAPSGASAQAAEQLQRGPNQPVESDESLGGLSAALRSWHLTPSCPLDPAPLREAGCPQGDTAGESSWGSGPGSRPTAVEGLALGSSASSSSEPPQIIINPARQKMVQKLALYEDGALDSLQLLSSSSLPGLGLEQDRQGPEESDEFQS
# TBK1 = biological target: T2, TBK1 (Homo sapiens, UniProt Q9UHD2)
# T2 sequence (Q9UHD2 1-729): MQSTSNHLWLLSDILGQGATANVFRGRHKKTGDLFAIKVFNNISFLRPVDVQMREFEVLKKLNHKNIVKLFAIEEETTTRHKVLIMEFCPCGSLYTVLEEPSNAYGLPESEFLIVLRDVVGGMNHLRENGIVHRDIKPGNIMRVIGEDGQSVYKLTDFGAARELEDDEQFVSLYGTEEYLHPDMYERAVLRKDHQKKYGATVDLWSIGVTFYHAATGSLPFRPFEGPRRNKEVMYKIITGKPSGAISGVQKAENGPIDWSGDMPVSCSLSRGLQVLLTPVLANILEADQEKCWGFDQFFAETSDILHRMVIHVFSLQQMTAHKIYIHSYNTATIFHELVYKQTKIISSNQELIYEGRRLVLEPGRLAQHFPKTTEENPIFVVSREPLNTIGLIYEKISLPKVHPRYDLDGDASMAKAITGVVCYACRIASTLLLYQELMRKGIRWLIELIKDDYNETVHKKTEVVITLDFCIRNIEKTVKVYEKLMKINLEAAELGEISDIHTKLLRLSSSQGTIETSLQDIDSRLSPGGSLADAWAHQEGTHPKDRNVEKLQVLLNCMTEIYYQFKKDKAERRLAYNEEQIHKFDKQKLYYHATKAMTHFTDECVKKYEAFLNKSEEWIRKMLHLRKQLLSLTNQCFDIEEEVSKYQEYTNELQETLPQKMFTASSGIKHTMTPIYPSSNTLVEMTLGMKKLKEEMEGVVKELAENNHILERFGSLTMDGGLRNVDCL
# TrkB = TrkB (Homo sapiens, UniProt Q16620)
# Sequence of TrkB (Q16620 32-822): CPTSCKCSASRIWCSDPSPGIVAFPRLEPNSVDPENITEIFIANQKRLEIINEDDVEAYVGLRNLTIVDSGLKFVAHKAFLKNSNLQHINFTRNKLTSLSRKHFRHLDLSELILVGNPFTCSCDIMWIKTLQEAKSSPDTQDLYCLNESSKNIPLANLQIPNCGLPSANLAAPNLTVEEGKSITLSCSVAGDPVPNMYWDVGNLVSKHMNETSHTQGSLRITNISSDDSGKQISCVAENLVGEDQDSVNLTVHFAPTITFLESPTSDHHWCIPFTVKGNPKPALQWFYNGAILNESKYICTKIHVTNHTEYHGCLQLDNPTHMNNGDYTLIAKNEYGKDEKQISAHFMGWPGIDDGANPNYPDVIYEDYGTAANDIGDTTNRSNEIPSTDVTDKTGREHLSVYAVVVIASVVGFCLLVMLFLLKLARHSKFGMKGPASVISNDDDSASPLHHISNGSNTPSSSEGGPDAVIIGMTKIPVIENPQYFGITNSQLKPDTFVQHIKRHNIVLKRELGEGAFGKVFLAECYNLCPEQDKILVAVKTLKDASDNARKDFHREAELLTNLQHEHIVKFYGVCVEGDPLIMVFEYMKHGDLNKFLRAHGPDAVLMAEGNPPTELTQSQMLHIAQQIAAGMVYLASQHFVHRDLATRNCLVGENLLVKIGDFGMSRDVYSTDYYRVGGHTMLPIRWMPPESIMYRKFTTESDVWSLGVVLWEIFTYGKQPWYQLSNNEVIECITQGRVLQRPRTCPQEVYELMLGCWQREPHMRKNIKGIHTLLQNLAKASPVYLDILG
# ZIPK = ZIPK (Homo sapiens, UniProt O43293)
# Sequence of ZIPK (O43293 whole entry): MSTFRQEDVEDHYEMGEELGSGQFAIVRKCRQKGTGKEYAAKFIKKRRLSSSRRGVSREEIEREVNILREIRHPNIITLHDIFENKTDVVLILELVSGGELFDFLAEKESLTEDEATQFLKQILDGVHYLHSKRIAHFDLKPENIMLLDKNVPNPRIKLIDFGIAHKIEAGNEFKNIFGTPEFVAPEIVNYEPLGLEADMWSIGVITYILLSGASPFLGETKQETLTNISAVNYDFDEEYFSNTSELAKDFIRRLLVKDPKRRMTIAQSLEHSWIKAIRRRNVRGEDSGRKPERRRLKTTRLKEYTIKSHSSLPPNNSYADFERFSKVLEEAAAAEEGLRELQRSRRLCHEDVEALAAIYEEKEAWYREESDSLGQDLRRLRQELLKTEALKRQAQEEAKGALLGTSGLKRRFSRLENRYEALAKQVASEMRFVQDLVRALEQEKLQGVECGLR
# PhKγ2 = biological target: T3, PhKγ2 (Homo sapiens, UniProt P15735)
# T3 sequence (P15735 1-406): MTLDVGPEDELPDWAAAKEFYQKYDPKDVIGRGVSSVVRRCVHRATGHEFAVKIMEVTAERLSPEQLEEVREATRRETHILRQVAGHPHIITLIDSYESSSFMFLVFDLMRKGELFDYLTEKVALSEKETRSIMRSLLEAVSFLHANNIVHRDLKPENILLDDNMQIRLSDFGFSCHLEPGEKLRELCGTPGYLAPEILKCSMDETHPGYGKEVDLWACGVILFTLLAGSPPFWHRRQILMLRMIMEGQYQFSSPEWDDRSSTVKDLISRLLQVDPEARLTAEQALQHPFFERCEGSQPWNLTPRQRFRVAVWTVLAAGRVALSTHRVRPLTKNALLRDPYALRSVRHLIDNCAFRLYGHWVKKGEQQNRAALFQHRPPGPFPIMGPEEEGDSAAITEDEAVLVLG
# Sequence of CK1δ (P48730 whole entry): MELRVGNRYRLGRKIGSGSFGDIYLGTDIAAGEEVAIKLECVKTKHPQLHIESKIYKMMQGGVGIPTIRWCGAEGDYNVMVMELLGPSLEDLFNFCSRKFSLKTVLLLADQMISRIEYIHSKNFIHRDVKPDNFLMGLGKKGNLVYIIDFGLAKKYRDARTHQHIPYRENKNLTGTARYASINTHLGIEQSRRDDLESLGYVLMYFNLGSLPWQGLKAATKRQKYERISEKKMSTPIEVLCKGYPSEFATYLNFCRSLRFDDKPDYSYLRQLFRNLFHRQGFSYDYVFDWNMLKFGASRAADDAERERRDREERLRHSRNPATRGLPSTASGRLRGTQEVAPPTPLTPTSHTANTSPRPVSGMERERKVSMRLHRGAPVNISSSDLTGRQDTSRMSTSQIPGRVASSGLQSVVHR
# Sequence of IGF-1R (P08069 31-1367): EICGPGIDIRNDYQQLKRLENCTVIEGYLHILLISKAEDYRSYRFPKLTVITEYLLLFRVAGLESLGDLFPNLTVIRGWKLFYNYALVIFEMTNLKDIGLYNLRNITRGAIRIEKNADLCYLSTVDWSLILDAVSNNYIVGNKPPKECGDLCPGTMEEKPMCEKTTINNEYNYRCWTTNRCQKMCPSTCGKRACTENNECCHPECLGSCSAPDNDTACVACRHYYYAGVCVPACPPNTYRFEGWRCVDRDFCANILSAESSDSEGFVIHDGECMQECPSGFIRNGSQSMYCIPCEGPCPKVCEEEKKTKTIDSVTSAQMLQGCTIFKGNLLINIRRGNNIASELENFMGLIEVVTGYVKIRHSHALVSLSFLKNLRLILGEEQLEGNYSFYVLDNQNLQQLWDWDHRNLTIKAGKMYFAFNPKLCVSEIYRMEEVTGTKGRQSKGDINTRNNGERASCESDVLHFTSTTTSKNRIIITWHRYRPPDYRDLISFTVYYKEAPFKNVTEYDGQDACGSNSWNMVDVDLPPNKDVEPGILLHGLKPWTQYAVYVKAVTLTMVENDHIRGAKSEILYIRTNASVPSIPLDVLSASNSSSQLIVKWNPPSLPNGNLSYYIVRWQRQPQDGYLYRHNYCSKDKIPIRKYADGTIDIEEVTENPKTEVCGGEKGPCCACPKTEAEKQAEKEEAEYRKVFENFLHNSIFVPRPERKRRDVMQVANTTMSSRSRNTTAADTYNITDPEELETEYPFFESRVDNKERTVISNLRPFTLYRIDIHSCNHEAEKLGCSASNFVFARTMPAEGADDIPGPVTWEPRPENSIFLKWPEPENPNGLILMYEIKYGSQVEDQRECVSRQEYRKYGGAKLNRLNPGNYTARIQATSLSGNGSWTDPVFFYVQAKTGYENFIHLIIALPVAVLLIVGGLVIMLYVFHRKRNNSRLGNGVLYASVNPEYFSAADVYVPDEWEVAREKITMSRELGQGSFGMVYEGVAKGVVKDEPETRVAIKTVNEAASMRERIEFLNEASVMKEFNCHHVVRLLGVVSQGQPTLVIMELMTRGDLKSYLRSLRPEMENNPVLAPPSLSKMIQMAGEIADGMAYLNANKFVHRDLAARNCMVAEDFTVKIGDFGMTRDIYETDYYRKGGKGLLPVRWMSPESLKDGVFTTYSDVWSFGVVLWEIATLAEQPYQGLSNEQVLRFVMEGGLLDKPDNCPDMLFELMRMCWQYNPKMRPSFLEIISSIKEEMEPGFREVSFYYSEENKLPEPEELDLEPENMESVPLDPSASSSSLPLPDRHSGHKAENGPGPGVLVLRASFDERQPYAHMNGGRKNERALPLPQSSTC
# Sequence of CDK5/p25 (Q00535 whole entry): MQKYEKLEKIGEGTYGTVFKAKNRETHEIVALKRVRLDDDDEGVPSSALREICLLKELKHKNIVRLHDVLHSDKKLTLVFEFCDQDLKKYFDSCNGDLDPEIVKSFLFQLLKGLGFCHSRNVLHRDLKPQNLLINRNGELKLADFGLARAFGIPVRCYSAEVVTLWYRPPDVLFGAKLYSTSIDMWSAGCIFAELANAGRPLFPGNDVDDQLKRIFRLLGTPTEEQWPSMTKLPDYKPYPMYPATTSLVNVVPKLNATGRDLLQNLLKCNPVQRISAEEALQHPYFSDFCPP
# Sequence of CDK5/p25 (Q15078 99-307 partner limits assumed): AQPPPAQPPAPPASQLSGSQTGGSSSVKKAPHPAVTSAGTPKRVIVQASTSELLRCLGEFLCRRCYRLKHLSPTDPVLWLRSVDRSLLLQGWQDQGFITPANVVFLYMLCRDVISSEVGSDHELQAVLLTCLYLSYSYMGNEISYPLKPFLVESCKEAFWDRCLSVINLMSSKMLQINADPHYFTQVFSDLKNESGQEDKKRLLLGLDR
smiles,measurement,setting,value
"COc1cc(O)c(CC=C(C)C)c(O)c1C(=O)/C=C/c1ccc(O)cc1 [Xanthohumol, xanthohumol]","Kinase activity, % of Control",AMPK; 1 ug/ml,122 % of Control
same,"Kinase activity, % of Control",AMPK; 5 ug/ml,113 % of Control
same,"Kinase activity, % of Control",AMPK; 25 ug/ml,90 % of Control
same,"Kinase activity, % of Control",AMPK; 50 ug/ml,81 % of Control
same,"Kinase activity, % of Control",CDK5/p25; 25 ug/ml,24 % of Control
same,"Kinase activity, % of Control",CDK5/p25; 50 ug/ml,87 % of Control
same,"Kinase activity, % of Control",CK1(y); 1 ug/ml,91 % of Control
same,"Kinase activity, % of Control",CK1(y); 5 ug/ml,63 % of Control
same,"Kinase activity, % of Control",CK1(y); 25 ug/ml,37 % of Control
same,"Kinase activity, % of Control",CK1(y); 50 ug/ml,9 % of Control
same,"Kinase activity, % of Control",CK1δ; 5 ug/ml,32 % of Control
same,"Kinase activity, % of Control",CK1δ; 25 ug/ml,16 % of Control
same,"Kinase activity, % of Control",CK1δ; 50 ug/ml,12 % of Control
same,"Kinase activity, % of Control",IGF-1R; 1 ug/ml,107 % of Control
same,"Kinase activity, % of Control",IGF-1R; 25 ug/ml,129 % of Control
same,"Kinase activity, % of Control",IGF-1R; 50 ug/ml,139 % of Control
same,"Kinase activity, % of Control",IKKβ; 1 ug/ml,145 % of Control
same,"Kinase activity, % of Control",IKKβ; 5 ug/ml,118 % of Control
same,"Kinase activity, % of Control",IKKβ; 25 ug/ml,61 % of Control
same,"Kinase activity, % of Control",IKKβ; 50 ug/ml,44 % of Control
same,"Kinase activity, % of Control",IRAK1; 1 ug/ml,129 % of Control
same,"Kinase activity, % of Control",IRAK1; 5 ug/ml,104 % of Control
same,"Kinase activity, % of Control",IRAK1; 50 ug/ml,36 % of Control
same,"Kinase activity, % of Control",TBK1; 1 ug/ml,104 % of Control
same,"Kinase activity, % of Control",TBK1; 5 ug/ml,71 % of Control
same,"Kinase activity, % of Control",TBK1; 25 ug/ml,45 % of Control
same,"Kinase activity, % of Control",TBK1; 50 ug/ml,42 % of Control
same,"Kinase activity, % of Control",TrkB; 1 ug/ml,95 % of Control
same,"Kinase activity, % of Control",TrkB; 5 ug/ml,89 % of Control
same,"Kinase activity, % of Control",TrkB; 25 ug/ml,58 % of Control
same,"Kinase activity, % of Control",TrkB; 50 ug/ml,3 % of Control
same,"Kinase activity, % of Control",ZIPK; 1 ug/ml,115 % of Control
same,"Kinase activity, % of Control",ZIPK; 5 ug/ml,74 % of Control
same,"Kinase activity, % of Control",ZIPK; 25 ug/ml,20 % of Control
same,"Kinase activity, % of Control",ZIPK; 50 ug/ml,70 % of Control
same,"Kinase activity, % of Control",PhKγ2; 1 ug/ml,106 % of Control
same,"Kinase activity, % of Control",PhKγ2; 5 ug/ml,60 % of Control
same,"Kinase activity, % of Control",PhKγ2; 25 ug/ml,11 % of Control
same,"Kinase activity, % of Control",PhKγ2; 50 ug/ml,5 % of Control
